Target: T1, human α2A (α2 -C10)-adrenoceptor (Homo sapiens, UniProt P08913)
T1 construct: expressed in transfected cells; host or cells: S115 cells (recombinant mammalian S115 cell line), crude particulate homogenate
T1 sequence (P08913 1-465): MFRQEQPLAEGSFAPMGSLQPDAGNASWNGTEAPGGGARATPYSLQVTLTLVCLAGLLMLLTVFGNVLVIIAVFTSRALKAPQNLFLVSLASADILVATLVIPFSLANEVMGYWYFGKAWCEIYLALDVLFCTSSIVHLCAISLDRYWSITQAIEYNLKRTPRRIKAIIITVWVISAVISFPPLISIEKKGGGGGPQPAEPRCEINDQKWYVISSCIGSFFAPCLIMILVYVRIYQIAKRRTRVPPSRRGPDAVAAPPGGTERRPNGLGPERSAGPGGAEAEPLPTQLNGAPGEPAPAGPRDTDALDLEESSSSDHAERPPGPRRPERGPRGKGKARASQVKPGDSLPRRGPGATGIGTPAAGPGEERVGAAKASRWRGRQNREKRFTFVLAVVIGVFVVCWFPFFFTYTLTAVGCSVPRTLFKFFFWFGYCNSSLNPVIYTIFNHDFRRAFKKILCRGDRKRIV
Experiment: [3H]-rauwolscine radioligand receptor binding (competition) assay, α2A-adrenoceptor
Conditions: recombinant mammalian S115 cell line; 1 nM [3H]-rauwolscine; 50 mM KH2PO4 pH 7.5; 30 min at 25° C.; read-out: α2A aff (Ki values)
Protocol: The affinity of the test compounds on the α2 -adrenoceptor was established using the recombinant mammalian S115 cell line expressing the human α2A (α2 -C10)-adrenoceptor (7) in a radioligand receptor binding assay. The cells were harvested and suspended in 30 v/w of 50 mM Tris with 5 mM EDTA (pH 7.5 at 4° C.) and homogenized in Teflon-glass homogenizer. Cell homogenate was then centrifuged twice at 47,800×g (Sorvall RC-5C) for 30 min at 4° C. with re-suspension by two strokes in Tris/EDTA buffer. The final pellet was re-suspended in ten v/w of incubation buffer (50 mM KH2 PO4 buffer, pH 7.5 at 25° C.) and distributed in aliquots to be stored at -80° C. for later use.
In a competition binding experiment, the radioligands were incubated at 1 nM [^3 H]-rauwolscine with the cell suspension (20-50 μg of total protein per tube) with or without presence of a test compound in 50 mM KH2 PO4 (pH 7.5 at 25° C.) in a total volume of 0.25 ml. Non-specific binding of the radioligand was determined using 0.1 mM oxymetazoline. After a 30 min incubation at 25° C., incubation was terminated by rapid filtration through GF/B filters using a cell harvester. Inhibition experiments were analysed using a non-linear regression curve-fitting computer program to obtain Ki values.

**Q.** How did the Ki turn out when `CN1CCc2cc(OCCCCCC#N)ccc2C1` [Compound 5c, 6-(5-cyano-1-pentyloxy)-2-methyl-1,2,3,4-tetrahydroisoquinoline] was run?
**A.** 3710 nM

**Q.** `CN1CCc2cc(OCc3ccc(F)c(F)c3)ccc2C1` [Compound 5e, 6-(3,4-difluorophenylmethoxy)-2-methyl-1,2,3,4-tetrahydroisoquinoline] was tested. Which Ki did it give?
**A.** 1430 nM

**Q.** Which Ki does the source give for `CCCCCCCCCCCCCCOc1ccc2c(c1)CCN(C)C2` [Compound 5l, 6-tetradecanyloxy-2-methyl-1,2,3,4-tetrahydroisoquinoline] here?
**A.** 266 nM

**Q.** `CN1CCc2cccc(OCC3CCCCC3)c2C1` [Compound 5j, 8-cyclohexylmethoxy-2-methyl-1,2,3,4-tetrahydroisoquinoline] was tested. Which Ki did it give?
**A.** 173 nM

**Q.** For `CCCCCCCCCCCCCCOc1cccc2c1CCN(C)C2` [Compound 5k, 5-tetradecanyloxy-2-methyl-1,2,3,4-tetrahydroisoquinoline], which Ki is on record?
**A.** 6480 nM

**Q.** How did the Ki turn out when `CCCCOc1cccc2c1CCN(CCC)C2` [Compound 5g, 5-butoxy-2-propyl-1,2,3,4-tetrahydroisoquinoline] was run?
**A.** 264 nM

**Q.** `CCCCCCCCCCCCCCOc1cccc2c1CN(C)CC2` [Compound 5m, 8-tetradecanyloxy-2-methyl-1,2,3,4-tetrahydroisoquinoline] was tested. Which Ki did it give?
**A.** 25000 nM

**Q.** For `CN1CCc2cccc(OCc3ccc(F)c(F)c3)c2C1` [Compound 5f, 8-(3,4-difluorophenylmethoxy)-2-methyl-1,2,3,4-tetrahydroisoquinoline], which Ki is on record?
**A.** 490 nM

**Q.** `CN1CCc2c(cccc2OCC2CCCCC2)C1` [Compound 5h, 5-cyclohexylmethoxy-2-methyl-1,2,3,4-tetrahydroisoquinoline] was tested. Which Ki did it give?
**A.** 750 nM

**Q.** With `CN1CCc2c(cccc2OCCCCCC#N)C1` [Compound 5b, 5-(5-cyano-1-pentyloxy)-2-methyl-1,2,3,4-tetrahydroisoquinoline] as the compound, how does the Ki read?
**A.** 1040 nM

**Q.** `CN1CCc2cc(OCC3CCCCC3)ccc2C1` [Compound 5i, 6-cyclohexylmethoxy-2-methyl-1,2,3,4-tetrahydroisoquinoline] was tested. Which Ki did it give?
**A.** 977 nM

**Q.** `CN1CCc2c(cccc2OCc2ccc(F)c(F)c2)C1` [Compound 5d, 5-(3,4-difluorophenylmethoxy)-2-methyl-1,2,3,4-tetrahydroisoquinoline] was tested. Which Ki did it give?
**A.** 318 nM
